Patent US20070027144A1, “Novel use of cannabinoid receptor agonist” (SHIONOGI & CO., LTD., priority 2003, published 2007)

How the values were obtained:
[1] = tested on: BN rats; assay: Antigen-induced bronchial hyperresponsiveness in BN rats (chronic model); type: in vivo; conditions: oral for 8 days
Procedure: (§1) Antigen-induced bronchial hyperresponsiveness in BN rats: Brown Norway (BN) rats (Charles River Japan) were actively sensitized by the intraperitoneal injection of 1 mL mixture containing aluminum hydroxide gel (1 mg) and ovalbumin (0.1 mg, OVA). Ten days later, antigen challenge was performed by the inhalation of an aerosolized 1% OVA solution for 30 min using an ultrasonic nebulizer. ACh was intravenously injected to rats 24 h after antigen challenge under sodium pentobarbital anesthesia (80 mg/kg, i.p.) by increasing doses of ACh every 5 min, then bronchoconstrictor response observed immediately after each ACh injection was measured by the method of Konzett & Rössler with some modifications. Briefly, trachea of rats was incised and a cannula was attached to lung side. An artificial respirator (SN-480-7, Shinano) was connected to the cannula, and then a fixed amount of air (tidal volume: 3 mL, ventilation frequency: 60 times/min) continuously insufflated to maintain respiration. The insufflation pressure overflowed from inhalation tube was monitored by a pressure transducer (TP-400T, Nihon Kohden) and recorded on a recorder (WT-645G, Nihon Kohden) through a carrier amplifier (AP-601G, Nihon Kohden). Test compounds were administered orally once 1 h before antigen challenge. The area under the curve (AUC) calculated from dose-response curve for ACh was compared between vehicle-treated control group and test compound-treated group, and then statistical significance was analyzed concerning inhibitory effect on bronchial hyperresponsiveness.
(§2) Antigen-induced bronchial hyperresponsiveness in BN rats: BN rats were actively sensitized by the intraperitoneal injection of a mixture containing aluminum hydroxide gel and ovalbumin. Twelve days later, antigen challenge was performed by the inhalation of an aerosolized 1% OVA solution or physiological saline for 30 min using an ultrasonic nebulizer (NE-U12, Omron). […] Inhibitory effect on bronchial hyperresponsiveness was evaluated 24 h after last antigen challenge by the method described in the section of Experimental Example 1.

[2] = tested on: guinea pigs; assay: Bronchodilating effect in guinea pigs (ACh-induced bronchoconstriction); type: in vivo; conditions: oral 1 h before ACh injection, 10 mg/kg, P<0.01
Procedure: Under urethane anesthesia (1.4 g/kg, i.p.), ACh was intravenously injected to guinea pigs by increasing doses of ACh every 5 min, then bronchoconstrictor response observed immediately after each ACh injection was measured by the method of Konzett & Rössler with some modifications. Briefly, trachea of guinea pigs was incised and a cannula was attached to the lung side. An artificial respirator (SN-480-7, Shinano) was connected to the cannula, and then a fixed amount of air (tidal volume: 4 mL, ventilation frequency: 60 times/min) continuously insufflated to maintain respiration. The insufflation pressure overflowed from inhalation tube was monitored by a pressure transducer (TP-400T, Nihon Kohden) and recorded on a recorder (WT-645G, Nihon Kohden) through a carrier amplifier (AP-601G, Nihon Kohden). Test compounds were administered orally 1 h before ACh injection, then the effect on the dose-response curve of ACh was examined. Statistical significance was analyzed concerning broncohdilating effect in guinea pigs.

[3] = tested on: guinea pigs; assay: Antigen-induced bronchial hyperresponsiveness in guinea pigs (acute model); type: in vivo; conditions: oral 1 h before antigen challenge
Procedure: (§3) Antigen-induced bronchial hyperresponsiveness in guinea pigs: Guinea pigs (Charles River Japan) held in an exposure chamber were actively sensitized by the inhalation of an aerosolized 1% OVA solution for 10 min using an ultrasonic nebulizer (NE-U12, Omron) twice with an interval of 1 week. One week later, antigen challenge was performed by inhalation of an aerosolized 1% OVA generated by an ultrasonic nebulizer for 5 min. Test compounds were administered orally 1 h before antigen challenge. In addition, guinea pigs were treated with diphenhydramine (10 mg/kg, i.p.), an antihistamine, to protect the animals from anaphylactic death 10 min before antigen challenge. ACh was intravenously injected to guinea pigs 24 h after antigen challenge under urethane anesthesia (1.4 g/kg, i.p.) by increasing doses of ACh every 5 min, then bronchoconstrictor response observed immediately after each ACh injection was measured by the method of Konzett & Rössler with some modifications. Briefly, trachea of guinea pigs was incised and a cannula was attached to the lung side. An artificial respirator (SN-480-7, Shinano) was connected to the cannula, and then a fixed amount of air (tidal volume: 4 mL, ventilation frequency: 60 times/min) continuously insufflated to maintain respiration. The insufflation pressure overflowed from inhalation tube was monitored by a pressure transducer (TP-400T, Nihon Kohden) and recorded on a recorder (WT-645G, Nihon Kohden) through a carrier amplifier (AP-601G, Nihon Kohden). The area under the curve (AUC) calculated from dose-response curve for ACh was compared between vehicle-treated control group and test compound-treated group, and then statistical significance was analyzed concerning inhibitory effect on bronchial hyperresponsiveness.

[4] = tested on: BN rats; assay: Antigen-induced mucus secretion in BN rats (acute model); type: in vivo, Brown Norway (BN) rats; conditions: oral, 10 mg/kg, P<0.01
Procedure: as §1, with “An artificial respirator (SN-480-7, Shinano) was connected to the cannula, and then a fixed amount of air (tidal volume: 3 mL, ventilation frequency: 60 times/min) continuously insufflated to maintain respiration.” left out, “Test compounds were administered orally once 1 h before antigen challenge.” left out, “hyperresponsiveness. […]” for “hyperresponsiveness.”

[5] = tested on: BN rats; assay: Antigen-induced airway inflammatory cell infiltration in BN rats (acute model); type: in vivo, Brown Norway (BN) rats; conditions: oral, P<0.01
Procedure: as §1, with “An artificial respirator (SN-480-7, Shinano) was connected to the cannula, and then a fixed amount of air (tidal volume: 3 mL, ventilation frequency: 60 times/min) continuously insufflated to maintain respiration.” left out, “Test compounds were administered orally once 1 h before antigen challenge.” left out, “hyperresponsiveness. […]” for “hyperresponsiveness.”

[6] = tested on: BN rats; assay: Antigen-induced bronchial hyperresponsiveness in BN rats (acute model); type: in vivo, Brown Norway (BN) rats; conditions: oral once 1 h before antigen challenge, 10 mg/kg, P<0.01
Procedure: as §1, with “An artificial respirator (SN-480-7, Shinano) was connected to the cannula, and then a fixed amount of air (tidal volume: 3 mL, ventilation frequency: 60 times/min) continuously insufflated to maintain respiration.” left out, “Test compounds were administered orally once 1 h before antigen challenge.” left out

[7] = tested on: guinea pigs; assay: Antigen-induced airway inflammatory cell infiltration in guinea pigs (acute model); type: in vivo; conditions: oral
Procedure: as §3, with “An artificial respirator (SN-480-7, Shinano) was connected to the cannula, and then a fixed amount of air (tidal volume: 4 mL, ventilation frequency: 60 times/min) continuously insufflated to maintain respiration.” left out
(§4) Antigen-induced airway inflammatory cell infiltration in guinea pigs: After finishing experiment mentioned above, the lungs are washed 3 times with 10 mL of physiological saline through tracheal cannula using injection syringe. Then the cell number in the washing was determined. […] Differential cell counts were performed after May-Grünwald-Giemsa staining, and then statistical significance was analyzed concerning inhibitory effect on airway inflammatory cell infiltration.

[8] = tested on: BN rats; assay: Antigen-induced airway inflammatory cell infiltration in BN rats (chronic model); type: in vivo; conditions: oral for 8 days, 100 mg/kg, P<0.01
Procedure: as §2, with “Omron). To establish chronic bronchial hyerreactivity model, this procedure was repeated 3 times with 1-week intervals. Test compounds were administered orally for 8 days from the day of third antigen challenge. On the day of third antigen challenge, test compounds were administered 1 h before challenge.” for “Omron).”
as §4, with “BN rats:” for “guinea pigs:”, “were” for “are”, “5” for “10”, “infiltration as in the section of Experimental Example 2.” for “infiltration.”

[9] = tested on: guinea pigs; assay: Antigen-induced mucus secretion in guinea pigs (chronic model); type: in vivo; conditions: oral for 8 days, 30 mg/kg, P<0.01
Procedure: (§5) Antigen-induced bronchial hyperresponsiveness in guinea pigs: Guinea pigs held in an exposure chamber were actively sensitized by the inhalation of an aerosolized 1% OVA solution for 10 min using an ultrasonic nebulizer (NE-U12, Omron) twice with an interval of 1 week. One week and 2 weeks later, antigen challenge was performed twice by inhalation of an aerosolized 1% OVA generated by an ultrasonic nebulizer for 5 min. Test compounds were administered orally for 8 days from the day of first antigen challenge. On the day of each antigen challenge, test compounds were administered 1 h before challenge. […] Inhibitory effect on bronchial hyperresponsiveness was evaluated 24 h after last antigen challenge by the method described in the section of Experimental Example 7. The area under the curve (AUC) calculated from dose-response curve for ACh was compared between vehicle-treated control group and test compound-treated group, and then statistical significance was analyzed concerning inhibitory effect on bronchial hyperresponsiveness.
Antigen-induced mucus secretion in guinea pigs: After measurement of bronchial hyperresponsiveness, the lungs are washed 3 times with 10 mL of physiological saline through tracheal cannula using injection syringe, and then the washing was centrifuged. […] Statistical significance was analyzed concerning inhibitory effect on mucus secretion.

[10] = tested on: guinea pigs; assay: Antigen-induced bronchial hyperresponsiveness in guinea pigs (chronic model); type: in vivo; conditions: oral for 8 days, 30 mg/kg, P<0.05
Procedure: as §3, with “An artificial respirator (SN-480-7, Shinano) was connected to the cannula, and then a fixed amount of air (tidal volume: 4 mL, ventilation frequency: 60 times/min) continuously insufflated to maintain respiration.” left out, “The area under the curve (AUC) calculated from dose-response curve for ACh was compared between vehicle-treated control group and test compound-treated group, and then statistical significance was analyzed concerning inhibitory effect on bronchial hyperresponsiveness.” left out

[11] = tested on: guinea pigs; assay: Antigen-induced airway inflammatory cell infiltration in guinea pigs (chronic model); type: in vivo; conditions: oral for 8 days, 30 mg/kg, P<0.01
Procedure: as §5
Antigen-induced airway inflammatory cell infiltration in guinea pigs: After finishing experiment mentioned above, the lungs are washed 3 times with 10 mL of physiological saline through tracheal cannula using injection syringe. Then the cell number in the washing was determined. […]

CCCCn1c2c(cc(C(=O)NC(C)(C)c3ccccc3)c1=O)CCCCCC2 [Compound 4-320]
significant effect: inhibitory effect on bronchial hyperresponsiveness ([1]; 3 mg/kg, P<0.01) | bronchodilating effect (effect on the dose-response curve of ACh) [2] | inhibitory effect on bronchial hyperresponsiveness (AUC of ACh dose-response curve vs vehicle) ([3]; 1 mg/kg, P<0.01) | inhibitory effect on bronchial hyperresponsiveness (AUC of ACh dose-response curve vs vehicle) ([3]; 10 mg/kg, P<0.05) | inhibitory effect on mucus secretion (mucin levels in lung washing) [4] | inhibitory effect on airway inflammatory cell infiltration ([5]; 1 mg/kg) | inhibitory effect on airway inflammatory cell infiltration ([5]; 10 mg/kg) | inhibitory effect on bronchial hyperresponsiveness (AUC of ACh dose-response curve vs vehicle) [6] | inhibitory effect on airway inflammatory cell infiltration ([7]; 1 mg/kg, P<0.05) | inhibitory effect on airway inflammatory cell infiltration ([7]; 10 mg/kg, P<0.01)

CSC(=S)N1CC2(CCCCC2)CS/C1=N\c1ccc(OC(F)(F)F)cc1 [Compound I-12]
significant effect: inhibitory effect on bronchial hyperresponsiveness ([1]; 30 mg/kg, P<0.01) | inhibitory effect on bronchial hyperresponsiveness ([1]; 100 mg/kg, P<0.05) | inhibitory effect on airway inflammatory cell infiltration [8] | inhibitory effect on bronchial hyperresponsiveness (AUC of ACh dose-response curve vs vehicle) ([3]; 10 mg/kg, P<0.05) | inhibitory effect on mucus secretion (mucin levels in lung washing) [9] | inhibitory effect on airway inflammatory cell infiltration ([7]; 10 mg/kg, P<0.05) | inhibitory effect on bronchial hyperresponsiveness (AUC of ACh dose-response curve vs vehicle) [10] | inhibitory effect on airway inflammatory cell infiltration [11]
